# Laboratory results taken from patent US20260216116A1, “QUATERNARY AMMONIUM COMPOUNDS (QACS) AND PROCESS FOR PREPARATION THEREOF” (priority 2023, published 2026).
# Assay: Dissociation of 1 carboxy N—N—N trimethylmethanaminium benzoate in buffer solutions
# Assay type: physicochemical
# Protocol: Sample Preparation: 750 mg sample was dissolved in 250 mL of respective buffer solution and kept in orbital shaker at 37° C. for 30 minutes, 1 hour and 2 hours in separate flask. […]
# [1] = pH 1.2 (0.1N HCl), 1 Hours, 37° C.
# [2] = pH 1.2 (0.1N HCl), 2 Hours, 37° C.
# [3] = pH 1.2 (0.1N HCl), 30 Minutes, 37° C.
# [4] = pH 1.2 (0.1N HCl), Initial, 750 mg in 250 mL, 37° C.
# [5] = pH 6.8 (Phosphate Buffer), 1 Hours, 37° C.
# [6] = pH 6.8 (Phosphate Buffer), 2 Hours, 37° C.
# [7] = pH 6.8 (Phosphate Buffer), 30 Minutes, 37° C.
# [8] = pH 6.8 (Phosphate Buffer), Initial
# [9] = pH 6.8 (Phosphate Buffer), Initial, 750 mg in 250 mL, 37° C.
smiles,measurement,setting,value
C[N+](C)(C)CC(=O)O.O=C([O-])c1ccccc1 [1-carboxy-N—N—N-trimethylmethanaminium benzoate],Dissociation,1.2 pH,completely dissociated
same,Dissociation,6.8 pH,completely dissociated
same,"Concentration in %: 1 carboxy N-N-N trimethylmethanaminium, %",Control,70%
same,"Concentration in %: Benzoic acid, %",Control,36%
same,"%, Dissociation of 1 carboxy N-N-N trimethylmethanaminium",[1],100%
same,"%, Dissociation of Benzoic acid",[1],115%
same,"Concentration in %: 1 carboxy N-N-N trimethylmethanaminium, %",[1],69%
same,"Concentration in %: Benzoic acid, %",[1],41%
same,"%, Dissociation of 1 carboxy N-N-N trimethylmethanaminium",[2],100%
same,"%, Dissociation of Benzoic acid",[2],114%
same,"Concentration in %: 1 carboxy N-N-N trimethylmethanaminium, %",[2],70%
same,"Concentration in %: Benzoic acid, %",[2],41%
same,"%, Dissociation of 1 carboxy N-N-N trimethylmethanaminium",[3],98%
same,"%, Dissociation of Benzoic acid",[3],115%
same,"Concentration in %: 1 carboxy N-N-N trimethylmethanaminium, %",[3],68%
same,"Concentration in %: Benzoic acid, %",[3],41%
same,"%, Dissociation of 1 carboxy N-N-N trimethylmethanaminium","pH 1.2 (0.1N HCl), Initial",97%
same,"%, Dissociation of Benzoic acid","pH 1.2 (0.1N HCl), Initial",94%
same,"Concentration in %: 1 carboxy N-N-N trimethylmethanaminium, %",[4],67%
same,"Concentration in %: Benzoic acid, %",[4],34%
same,"%, Dissociation of 1 carboxy N-N-N trimethylmethanaminium",[5],97%
same,"%, Dissociation of Benzoic acid",[5],109%
same,"Concentration in %: 1 carboxy N-N-N trimethylmethanaminium, %",[5],70%
same,"Concentration in %: Benzoic acid, %",[5],40%
same,"%, Dissociation of 1 carboxy N-N-N trimethylmethanaminium",[6],99%
same,"%, Dissociation of Benzoic acid",[6],108%
same,"Concentration in %: 1 carboxy N-N-N trimethylmethanaminium, %",[6],71%
same,"Concentration in %: Benzoic acid, %",[6],40%
same,"%, Dissociation of 1 carboxy N-N-N trimethylmethanaminium",[7],98%
same,"%, Dissociation of Benzoic acid",[7],109%
same,"Concentration in %: 1 carboxy N-N-N trimethylmethanaminium, %",[7],71%
same,"Concentration in %: Benzoic acid, %",[7],40%
same,"%, Dissociation of 1 carboxy N-N-N trimethylmethanaminium",[8],96%
same,"%, Dissociation of Benzoic acid",[8],97%
same,"Concentration in %: 1 carboxy N-N-N trimethylmethanaminium, %",[9],69%
same,"Concentration in %: Benzoic acid, %",[9],36%
